According to the NIST ThermoML archive (doi:10.1021/je7001094):
Numbers after ± are expanded uncertainties.

Key:
[1] = Molar enthalpy of transition or fusion; conditions: Crystal; DSC
[2] = Crystal; DTA
[3] = molar heat capacity at constant pressure; conditions: 323.1 K; 101.33 kPa; Crystal; Small sample (50 mg) DSC

For COc1ccc([C@@H]2CC(=O)c3c(O)cc(O)cc3O2)cc1O, the “Molar enthalpy of transition or fusion” value [1] was 8.58 ± 0.191 kcal/mol, the Normal melting temperature [2] was 226.07 ± 2 °C and the “molar heat capacity at constant pressure” value [3] was 906 ± 530 J/K/mol.
For C[C@@H]1O[C@@H](OC[C@H]2O[C@@H](Oc3c(-c4ccc(O)c(O)c4)oc4cc(O)cc(O)c4c3=O)[C@H](O)[C@@H](O)[C@@H]2O)[C@H](O)[C@H](O)[C@H]1O [rutin], the “Molar enthalpy of transition or fusion” value [1] was 19.7 ± 0.406 kcal/mol, the Normal melting temperature [2] was 177.00 ± 3 °C and the “molar heat capacity at constant pressure” value [3] was 915 ± 160 J/K/mol.
With O=c1c(O)c(-c2ccc(O)c(O)c2)oc2cc(O)cc(O)c12 [quercetin] the “Molar enthalpy of transition or fusion” value [1] was 9.92 ± 0.335 kcal/mol, the Normal melting temperature [2] was 322.00 ± 1.4 °C and the “molar heat capacity at constant pressure” value [3] was 585.9 ± 170 J/K/mol.
With O=c1cc(-c2ccccc2)oc2cc(O)cc(O)c12 [5,7-dihydroxyflavone] the “Molar enthalpy of transition or fusion” value [1] was 9.37 ± 0.215 kcal/mol, the Normal melting temperature [2] was 285.00 ± 2.2 °C and the “molar heat capacity at constant pressure” value [3] was 200.6 ± 110 J/K/mol.
In the case of O=C1CC(c2ccc(O)cc2)Oc2cc(O)cc(O)c21 (stereo not drawn) [4',5,7-trihydroxyflavanone], the “Molar enthalpy of transition or fusion” value [1] is reported as 9.51 ± 0.239 kcal/mol, the Normal melting temperature [2] is reported as 250.00 ± 1.2 °C and the “molar heat capacity at constant pressure” value [3] is reported as 259.7 ± 32 J/K/mol.
With O=c1c(O[C@@H]2O[C@H]([C@H](O)CO)[C@H](O)[C@H]2O)c(-c2ccc(O)c(O)c2)oc2cc(O)cc(O)c12 [isoquercitrin] the “Molar enthalpy of transition or fusion” value [1] was 11.9 ± 0.502 kcal/mol, the Normal melting temperature [2] was 198.00 ± 3 °C and the “molar heat capacity at constant pressure” value [3] was 947.9 ± 30 J/K/mol.
